# Source: ChEMBL document CHEMBL5608209, “Biological and structural investigation of tetrahydro-β-carboline-based selective HDAC6 inhibitors with improved stability” (Eur J Med Chem, 2024)
# The source made the active and inactive calls. No cut-off for these calls is given here.
# Tests used:
# [1] = biological target: T1, Protein deacetylase HDAC6 (Homo sapiens) (UniProt Q9UBN7); conditions: MV4-11, dose 50.0 nM, time 24.0 hrs
# T1 sequence (whole entry): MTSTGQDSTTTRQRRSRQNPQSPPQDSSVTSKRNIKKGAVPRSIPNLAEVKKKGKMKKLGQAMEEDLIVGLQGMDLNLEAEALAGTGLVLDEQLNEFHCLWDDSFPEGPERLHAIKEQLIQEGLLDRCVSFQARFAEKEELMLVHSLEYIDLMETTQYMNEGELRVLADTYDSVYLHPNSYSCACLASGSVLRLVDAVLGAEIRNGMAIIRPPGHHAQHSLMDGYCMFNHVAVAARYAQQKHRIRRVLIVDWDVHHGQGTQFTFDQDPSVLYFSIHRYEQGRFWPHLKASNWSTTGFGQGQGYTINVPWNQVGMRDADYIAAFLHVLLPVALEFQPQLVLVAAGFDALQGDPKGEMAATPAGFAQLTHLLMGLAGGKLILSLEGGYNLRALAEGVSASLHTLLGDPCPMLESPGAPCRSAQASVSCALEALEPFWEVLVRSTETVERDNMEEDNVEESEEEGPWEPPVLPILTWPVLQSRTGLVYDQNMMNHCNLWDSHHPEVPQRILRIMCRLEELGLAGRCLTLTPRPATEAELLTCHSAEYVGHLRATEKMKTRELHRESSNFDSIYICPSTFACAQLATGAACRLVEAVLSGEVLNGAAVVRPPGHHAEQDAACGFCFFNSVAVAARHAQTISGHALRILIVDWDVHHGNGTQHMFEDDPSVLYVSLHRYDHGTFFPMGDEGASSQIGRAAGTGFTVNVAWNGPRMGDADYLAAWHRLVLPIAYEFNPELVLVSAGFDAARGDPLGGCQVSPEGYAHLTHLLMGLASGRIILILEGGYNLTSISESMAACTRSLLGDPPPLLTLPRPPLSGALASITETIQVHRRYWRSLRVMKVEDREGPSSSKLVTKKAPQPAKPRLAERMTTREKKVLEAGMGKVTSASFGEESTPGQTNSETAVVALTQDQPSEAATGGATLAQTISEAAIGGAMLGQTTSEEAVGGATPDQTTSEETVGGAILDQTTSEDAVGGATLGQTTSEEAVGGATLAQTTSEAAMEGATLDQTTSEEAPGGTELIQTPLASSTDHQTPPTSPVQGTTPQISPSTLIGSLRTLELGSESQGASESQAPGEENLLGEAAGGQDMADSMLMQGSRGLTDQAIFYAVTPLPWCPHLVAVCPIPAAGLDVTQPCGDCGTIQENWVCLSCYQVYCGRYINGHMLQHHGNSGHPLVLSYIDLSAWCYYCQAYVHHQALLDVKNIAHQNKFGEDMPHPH
# [2] = biological target: T1, Protein deacetylase HDAC6 (Homo sapiens); conditions: MV4-11, dose 500.0 nM, time 24.0 hrs
# [3] = biological target: T1, Protein deacetylase HDAC6 (Homo sapiens); conditions: MV4-11, dose 5.0 nM, time 24.0 hrs
# [4] = biological target: T2, Protein deacetylase HDAC6 (Homo sapiens, UniProt Q9UBN7); assay: Inhibition of purified recombinant human HDAC6 assessed as inhibition constant using residues 379-382 (RHKK(Ac)AMC) fluorogenic substrate p53 fluorogenic peptide as substrate measured after 90 mins by fluorescence assay
# T2 sequence (Q9UBN7 whole entry): T1 sequence (whole entry)
# [5] = biological target: Histone deacetylase 3 (Homo sapiens, UniProt O15379)
# Description: Inhibition of purified recombinant human HDAC3 assessed as inhibition constant using fluorogenic substrate ZMAL (Z-Lys(Ac)-AMC as substrate measured after 90 mins by fluorescence microplate reader
# [6] = biological target: T3, Histone deacetylase 8 (Homo sapiens, UniProt Q9BY41); assay: Inhibition of purified recombinant human HDAC8 assessed as inhibition constant using residues 379-382 (RHKK(Ac)AMC) fluorogenic substrate p53 fluorogenic peptide as substrate measured after 90 mins by fluorescence assay
# T3 sequence (Q9BY41 whole entry): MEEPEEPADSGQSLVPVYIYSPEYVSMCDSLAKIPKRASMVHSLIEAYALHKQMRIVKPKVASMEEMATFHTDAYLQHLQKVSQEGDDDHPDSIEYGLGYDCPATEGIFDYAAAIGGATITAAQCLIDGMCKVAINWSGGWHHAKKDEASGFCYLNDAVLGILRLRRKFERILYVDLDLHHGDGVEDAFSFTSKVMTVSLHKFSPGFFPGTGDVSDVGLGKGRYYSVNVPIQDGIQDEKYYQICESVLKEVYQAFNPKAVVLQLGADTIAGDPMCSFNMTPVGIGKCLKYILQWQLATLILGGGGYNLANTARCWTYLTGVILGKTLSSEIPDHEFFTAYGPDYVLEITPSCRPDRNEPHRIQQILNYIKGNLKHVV
# [7] = system: MV4-11; assay: Antiproliferative activity against human MV4-11 cells assessed as cell viability by measuring amount of ATP after 72 hrs incubation by CellTiteer-Glo Cell viability assay; conditions: MV4-11, 72 h
# [8] = in vitro; conditions: human, plasma diluted in PBS (1:2 v/v)
# Description: Stability in human plasma in PBS (1:2 v/v) assessed as intact compound at 37 degC measured after 24 hrs
# [9] = in vitro; conditions: human, plasma diluted in PBS (1:2 v/v); remark: listed apart in the source
# Description: Stability in human plasma in PBS (1:2 v/v) assessed as intact compound at 37 degC measured after 72 hrs
# [10] = biological target: T4, Polyamine deacetylase HDAC10 (Homo sapiens, UniProt Q969S8); assay: Inhibition of purified recombinant human HDAC10 assessed as inhibition constant using residues 379-382 (RHKK(Ac)AMC) fluorogenic substrate p53 fluorogenic peptide as substrate measured after 90 mins by fluorescence assay
# T4 sequence (Q969S8 whole entry): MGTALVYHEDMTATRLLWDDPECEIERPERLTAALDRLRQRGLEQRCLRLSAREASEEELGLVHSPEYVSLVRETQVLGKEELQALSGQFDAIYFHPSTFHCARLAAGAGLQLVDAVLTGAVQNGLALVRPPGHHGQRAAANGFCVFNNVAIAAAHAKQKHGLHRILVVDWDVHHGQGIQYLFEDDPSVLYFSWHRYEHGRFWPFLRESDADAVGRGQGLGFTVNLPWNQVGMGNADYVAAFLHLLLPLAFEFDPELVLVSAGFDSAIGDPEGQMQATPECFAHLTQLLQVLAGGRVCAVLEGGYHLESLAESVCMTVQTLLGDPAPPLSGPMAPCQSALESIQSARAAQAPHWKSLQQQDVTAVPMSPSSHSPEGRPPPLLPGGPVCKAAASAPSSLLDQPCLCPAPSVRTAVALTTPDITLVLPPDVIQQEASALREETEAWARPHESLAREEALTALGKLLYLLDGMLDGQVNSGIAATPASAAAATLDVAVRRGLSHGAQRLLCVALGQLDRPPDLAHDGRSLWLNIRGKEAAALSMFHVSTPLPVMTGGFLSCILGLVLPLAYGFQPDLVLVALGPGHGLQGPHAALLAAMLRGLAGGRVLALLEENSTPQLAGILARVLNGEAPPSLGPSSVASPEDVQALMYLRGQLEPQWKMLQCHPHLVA
# Histone deacetylase 3, sequence (O15379 whole entry, the tested form may be a part): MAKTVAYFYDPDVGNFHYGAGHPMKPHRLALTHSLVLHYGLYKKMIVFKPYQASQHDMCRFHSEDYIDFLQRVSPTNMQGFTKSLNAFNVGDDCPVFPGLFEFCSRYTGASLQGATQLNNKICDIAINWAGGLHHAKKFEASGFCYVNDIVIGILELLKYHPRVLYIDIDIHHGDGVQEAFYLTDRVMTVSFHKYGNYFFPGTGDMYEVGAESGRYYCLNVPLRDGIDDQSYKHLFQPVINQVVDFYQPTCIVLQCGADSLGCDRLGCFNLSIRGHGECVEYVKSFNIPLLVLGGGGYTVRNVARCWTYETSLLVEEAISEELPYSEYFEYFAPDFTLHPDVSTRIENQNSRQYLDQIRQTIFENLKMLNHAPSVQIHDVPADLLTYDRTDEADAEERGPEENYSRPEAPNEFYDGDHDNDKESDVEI
smiles,measurement,setting,value
CN1C(=O)C2CN(Cc3c2c2ccccc2n3Cc2ccc(C(=O)NO)cc2)C1=O (stereo not given),inhibition,[1],inactive
same,inhibition,[2],inactive
same,inhibition,[3],inactive
CN1C(=O)N2Cc3c(c4cc(O)ccc4n3Cc3ccc(C(=O)NO)cc3)C(c3cccs3)(C2)C1=O (racemic),Ki,[4],0.31 nM
same,Ki,[5],118 nM
CN1C(=O)N2Cc3c(c4cc(OCCN5CCOCC5)ccc4n3Cc3ccc(C(=O)NO)cc3)C(C3CCCCC3)(C2)C1=O (racemic),Ki,[6],1090 nM
same,Ki,[4],1.25 nM
same,Ki,[5],675 nM
O=C(CCCCCCNC(=O)c1cnc(N(c2ccccc2)c2ccccc2)nc1)NO [RICOLINOSTAT],EC50,[7],710 nM
CC(/C=C/C(=O)NO)=C\[C@@H](C)C(=O)c1ccc(N(C)C)cc1 [TRICHOSTATIN],EC50,[7],15300 nM
CN1C(=O)N2Cc3c(c4cc(OCCN5CCOCC5)ccc4n3Cc3ccc(C(=O)NO)cc3)C(c3ccco3)(C2)C1=O (racemic),Ki,[4],0.44 nM
same,Ki,[5],384 nM
CN1C(=O)N2Cc3c(c4cc(OCCN5CCOCC5)ccc4n3Cc3ccc(C(=O)O)cc3)[C@](C)(C2)C1=O,remaining at 24 h,[8],91.4%
same,remaining at 72 h,[9],56.3%
Cn1cc(CNCC2CCN(c3ncc(C(=O)NO)cn3)CC2)c2ccccc21 [QUISINOSTAT],Ki,[10],1.49 nM
